In PubChem BioAssay (NCI):
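Values below derive from 48-hour exposures of cells grown in 96-well plates, with endpoints linearly interpolated between the two concentrations bracketing the appropriate inhibition level. TGI marks complete inhibition of growth.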

How the values were obtained:
Experiment in all cases: DTP human tumour cell line panel, 48 h
[1] = tested on: A498 renal
[2] = tested on: A549 NSCLC
[3] = tested on: CAKI-1 renal
[4] = tested on: HCC-2998 colon
[5] = tested on: HCT-116 colon
[6] = tested on: HCT-15 colon
[7] = tested on: HL-60(TB) leukemia
[8] = tested on: IGROV1 ovarian
[9] = tested on: KM12 colon
[10] = tested on: MDA-MB-435
[11] = tested on: NCI-H226 lung
[12] = tested on: NCI-H23 lung
[13] = tested on: NCI/ADR-RES ovarian
[14] = tested on: OVCAR-5 ovarian
[15] = tested on: PC-3 prostate
[16] = tested on: RPMI-8226 leukemia
[17] = tested on: SF-268 CNS
[18] = tested on: U251 CNS
[19] = tested on: UACC-257 melanoma
[20] = tested on: UO-31 renal

Measured: TGI

O=[N+]([O-])c1ccc2[nH]nc(OCc3ccccn3)c2c1
> 100 µM: all assays above
